Measurements taken from PubChem BioAssay (NCI).
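Briefly, cells in 96-well plates were exposed to five compound concentrations for 48 h, and endpoints were estimated by linear interpolation. The concentration for 50% growth inhibition is given as GI50. Definition used: TGI = concentration required for complete inhibition of growth.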

Experiments:
Test in all cases: growth of human tumour cells (NCI), 48 h
A549 NSCLC = test system: A549 NSCLC
U251 CNS = test system: U251 CNS
SN12C renal = test system: SN12C renal
MDA-MB-231 breast = test system: MDA-MB-231 breast
NCI-H23 lung = test system: NCI-H23 lung
KM12 colon = test system: KM12 colon
UACC-62 melanoma = test system: UACC-62 melanoma
LOX IMVI melanoma = test system: LOX IMVI melanoma
NCI/ADR-RES ovarian = test system: NCI/ADR-RES ovarian
PC-3 prostate = test system: PC-3 prostate
ACHN renal = test system: ACHN renal
OVCAR-5 ovarian = test system: OVCAR-5 ovarian
NCI-H226 lung = test system: NCI-H226 lung
UO-31 renal = test system: UO-31 renal
M14 melanoma = test system: M14 melanoma
SK-MEL-28 melanoma = test system: SK-MEL-28 melanoma
EKVX NSCLC = test system: EKVX NSCLC
NCI-H522 lung = test system: NCI-H522 lung
SF-295 CNS = test system: SF-295 CNS
HS 578T breast = test system: HS 578T breast
IGROV1 ovarian = test system: IGROV1 ovarian
K-562 leukemia = test system: K-562 leukemia
RXF 393 renal = test system: RXF 393 renal
A498 renal = test system: A498 renal
SK-MEL-2 melanoma = test system: SK-MEL-2 melanoma
TK-10 renal = test system: TK-10 renal
SNB-75 CNS = test system: SNB-75 CNS
HCT-116 colon = test system: HCT-116 colon
HOP-92 NSCLC = test system: HOP-92 NSCLC
786-0 renal = test system: 786-0 renal
HCT-15 colon = test system: HCT-15 colon
DU-145 prostate = test system: DU-145 prostate
HT29 colon = test system: HT29 colon
RPMI-8226 leukemia = test system: RPMI-8226 leukemia
SW-620 colon = test system: SW-620 colon
SF-268 CNS = test system: SF-268 CNS
HL-60(TB) leukemia = test system: HL-60(TB) leukemia
NCI-H460 lung = test system: NCI-H460 lung
MALME-3M melanoma = test system: MALME-3M melanoma
MDA-MB-435 = test system: MDA-MB-435
HOP-62 NSCLC = test system: HOP-62 NSCLC
SNB-19 CNS = test system: SNB-19 CNS
OVCAR-4 ovarian = test system: OVCAR-4 ovarian
SF-539 CNS = test system: SF-539 CNS
OVCAR-8 ovarian = test system: OVCAR-8 ovarian
SK-OV-3 ovarian = test system: SK-OV-3 ovarian
CAKI-1 renal = test system: CAKI-1 renal
HCC-2998 colon = test system: HCC-2998 colon
BT-549 breast = test system: BT-549 breast
SK-MEL-5 melanoma = test system: SK-MEL-5 melanoma
MCF7 breast = test system: MCF7 breast
CCRF-CEM leukemia = test system: CCRF-CEM leukemia
COLO 205 colon = test system: COLO 205 colon
MOLT-4 leukemia = test system: MOLT-4 leukemia
UACC-257 melanoma = test system: UACC-257 melanoma
SR leukemia = test system: SR leukemia

Fc1cccc(Cl)c1/C=N/Nc1nc(N/N=C/c2c(F)cccc2Cl)nc(N2CCCCC2)n1
GI50 (A549 NSCLC): 3040 nM
TGI (A549 NSCLC): > 100 µM
GI50 (U251 CNS): 3560 nM
TGI (U251 CNS): 22.5 µM
GI50 (SN12C renal): 2850 nM
TGI (SN12C renal): > 100 µM
GI50 (MDA-MB-231 breast): 7.65 µM
TGI (MDA-MB-231 breast): 24.4 µM
GI50 (NCI-H23 lung): 3420 nM
TGI (NCI-H23 lung): 16.8 µM
GI50 (KM12 colon): 2930 nM
TGI (KM12 colon): > 100 µM
GI50 (UACC-62 melanoma): 2350 nM
TGI (UACC-62 melanoma): 9.5 µM
GI50 (LOX IMVI melanoma): 3770 nM
TGI (LOX IMVI melanoma): > 100 µM
GI50 (NCI/ADR-RES ovarian): 2760 nM
TGI (NCI/ADR-RES ovarian): > 100 µM
GI50 (PC-3 prostate): 2060 nM
TGI (PC-3 prostate): > 100 µM
GI50 (ACHN renal): 3040 nM
TGI (ACHN renal): 12.8 µM
GI50 (OVCAR-5 ovarian): 3800 nM
TGI (OVCAR-5 ovarian): > 100 µM
GI50 (NCI-H226 lung): 6.48 µM
TGI (NCI-H226 lung): > 100 µM
GI50 (UO-31 renal): 2010 nM
TGI (UO-31 renal): > 100 µM
GI50 (M14 melanoma): 2400 nM
TGI (M14 melanoma): 9 µM
GI50 (SK-MEL-28 melanoma): 3.41 µM
TGI (SK-MEL-28 melanoma): > 100 µM
GI50 (EKVX NSCLC): 1540 nM
TGI (EKVX NSCLC): > 100 µM
GI50 (NCI-H522 lung): 2570 nM
TGI (NCI-H522 lung): 9.68 µM
GI50 (SF-295 CNS): 1010 nM
TGI (SF-295 CNS): 10.7 µM
GI50 (HS 578T breast): 2440 nM
TGI (HS 578T breast): 15.4 µM
GI50 (IGROV1 ovarian): 3160 nM
TGI (IGROV1 ovarian): > 100 µM
GI50 (K-562 leukemia): 3080 nM
TGI (K-562 leukemia): > 100 µM
GI50 (RXF 393 renal): 2650 nM
TGI (RXF 393 renal): 11.5 µM
GI50 (A498 renal): 2400 nM
TGI (A498 renal): 13.2 µM
GI50 (SK-MEL-2 melanoma): 1690 nM
TGI (SK-MEL-2 melanoma): 3.91 µM
GI50 (TK-10 renal): 3.73 µM
TGI (TK-10 renal): 9.11 µM
GI50 (SNB-75 CNS): 2360 nM
TGI (SNB-75 CNS): 10.5 µM
GI50 (HCT-116 colon): 2830 nM
TGI (HCT-116 colon): 11.9 µM
GI50 (HOP-92 NSCLC): 1470 nM
TGI (HOP-92 NSCLC): 5.36 µM
GI50 (786-0 renal): 3440 nM
TGI (786-0 renal): 14.7 µM
GI50 (HCT-15 colon): 2820 nM
TGI (HCT-15 colon): > 100 µM
GI50 (DU-145 prostate): 11.7 µM
TGI (DU-145 prostate): > 100 µM
GI50 (HT29 colon): 2900 nM
TGI (HT29 colon): > 100000 nM
GI50 (RPMI-8226 leukemia): 2260 nM
TGI (RPMI-8226 leukemia): > 100 µM
GI50 (SW-620 colon): 3510 nM
TGI (SW-620 colon): > 100 µM
GI50 (SF-268 CNS): 4.22 µM
TGI (SF-268 CNS): 52.9 µM
GI50 (HL-60(TB) leukemia): 2000 nM
TGI (HL-60(TB) leukemia): > 100 µM
GI50 (NCI-H460 lung): 3140 nM
TGI (NCI-H460 lung): > 100 µM
GI50 (MALME-3M melanoma): 2210 nM
TGI (MALME-3M melanoma): 6.26 µM
GI50 (MDA-MB-435): 2860 nM
TGI (MDA-MB-435): > 100000 nM
GI50 (HOP-62 NSCLC): 2850 nM
TGI (HOP-62 NSCLC): 12 µM
GI50 (SNB-19 CNS): 3250 nM
TGI (SNB-19 CNS): 18 µM
GI50 (OVCAR-4 ovarian): 2580 nM
TGI (OVCAR-4 ovarian): > 100 µM
GI50 (SF-539 CNS): 7.65 µM
TGI (SF-539 CNS): 24.3 µM
GI50 (OVCAR-8 ovarian): 3890 nM
TGI (OVCAR-8 ovarian): > 100 µM
GI50 (SK-OV-3 ovarian): 3650 nM
TGI (SK-OV-3 ovarian): 15.4 µM
GI50 (CAKI-1 renal): 3010 nM
TGI (CAKI-1 renal): 15.5 µM
GI50 (HCC-2998 colon): 3680 nM
TGI (HCC-2998 colon): > 100 µM
GI50 (BT-549 breast): 4450 nM
TGI (BT-549 breast): 20.9 µM

CCN1C(=O)N(CC)C2SC(N/N=C/c3ccc(OC)cc3)=NC21 (stereo not drawn)
GI50 (SK-MEL-5 melanoma): 462 nM
TGI (SK-MEL-5 melanoma): 3.01 µM
GI50 (A549 NSCLC): 666 nM
TGI (A549 NSCLC): > 100 µM
GI50 (U251 CNS): 365 nM
TGI (U251 CNS): > 100 µM
GI50 (SN12C renal): 594 nM
TGI (SN12C renal): > 100 µM
GI50 (MDA-MB-231 breast): 0.868 µM
TGI (MDA-MB-231 breast): > 100 µM
GI50 (MCF7 breast): 381 nM
TGI (MCF7 breast): > 100 µM
GI50 (NCI-H23 lung): 570 nM
TGI (NCI-H23 lung): > 100 µM
GI50 (KM12 colon): 457 nM
TGI (KM12 colon): > 100 µM
GI50 (UACC-62 melanoma): 390 nM
TGI (UACC-62 melanoma): > 100 µM
GI50 (CCRF-CEM leukemia): 334 nM
TGI (CCRF-CEM leukemia): > 100 µM
GI50 (LOX IMVI melanoma): 564 nM
TGI (LOX IMVI melanoma): > 100 µM
GI50 (NCI/ADR-RES ovarian): 395 nM
TGI (NCI/ADR-RES ovarian): > 100 µM
GI50 (PC-3 prostate): 449 nM
TGI (PC-3 prostate): > 100 µM
GI50 (ACHN renal): 811 nM
TGI (ACHN renal): > 100 µM
GI50 (COLO 205 colon): 273 nM
TGI (COLO 205 colon): 751 nM
GI50 (OVCAR-5 ovarian): 917 nM
TGI (OVCAR-5 ovarian): > 100 µM
GI50 (NCI-H226 lung): 0.438 µM
TGI (NCI-H226 lung): > 72 µM
GI50 (UO-31 renal): 686 nM
TGI (UO-31 renal): > 100 µM
GI50 (M14 melanoma): 322 nM
TGI (M14 melanoma): 34.2 µM
GI50 (SK-MEL-28 melanoma): > 100 µM
TGI (SK-MEL-28 melanoma): > 100 µM
GI50 (EKVX NSCLC): 704 nM
TGI (EKVX NSCLC): > 100 µM
GI50 (NCI-H522 lung): 235 nM
TGI (NCI-H522 lung): 0.76 µM
GI50 (SF-295 CNS): 317 nM
TGI (SF-295 CNS): > 83.8 µM
GI50 (HS 578T breast): 305 nM
TGI (HS 578T breast): > 100 µM
GI50 (IGROV1 ovarian): 648 nM
TGI (IGROV1 ovarian): > 100 µM
GI50 (K-562 leukemia): 350 nM
TGI (K-562 leukemia): > 100 µM
GI50 (RXF 393 renal): 282 nM
TGI (RXF 393 renal): > 100 µM
GI50 (A498 renal): 217 nM
TGI (A498 renal): 0.685 µM
GI50 (SK-MEL-2 melanoma): 504 nM
TGI (SK-MEL-2 melanoma): > 100 µM
GI50 (TK-10 renal): > 100 µM
TGI (TK-10 renal): > 100 µM
GI50 (SNB-75 CNS): 321 nM
TGI (SNB-75 CNS): > 100 µM
GI50 (HCT-116 colon): 394 nM
TGI (HCT-116 colon): > 40.3 µM
GI50 (HOP-92 NSCLC): 283 nM
TGI (HOP-92 NSCLC): 4.66 µM
GI50 (786-0 renal): 849 nM
TGI (786-0 renal): 51.7 µM
GI50 (HCT-15 colon): 404 nM
TGI (HCT-15 colon): > 100 µM
GI50 (DU-145 prostate): 0.478 µM
TGI (DU-145 prostate): > 100 µM
GI50 (HT29 colon): 322 nM
TGI (HT29 colon): 1280 nM
GI50 (RPMI-8226 leukemia): 423 nM
TGI (RPMI-8226 leukemia): > 100 µM
GI50 (SW-620 colon): 380 nM
TGI (SW-620 colon): > 100 µM
GI50 (SF-268 CNS): 2.51 µM
TGI (SF-268 CNS): > 100 µM
GI50 (MOLT-4 leukemia): 589 nM
TGI (MOLT-4 leukemia): > 100 µM
GI50 (UACC-257 melanoma): 2320 nM
TGI (UACC-257 melanoma): > 100 µM
GI50 (HL-60(TB) leukemia): 281 nM
TGI (HL-60(TB) leukemia): 9.06 µM
GI50 (NCI-H460 lung): 357 nM
TGI (NCI-H460 lung): > 100 µM
GI50 (MDA-MB-435): 205 nM
TGI (MDA-MB-435): 522 nM
GI50 (HOP-62 NSCLC): 433 nM
TGI (HOP-62 NSCLC): > 100 µM
GI50 (SNB-19 CNS): 464 nM
TGI (SNB-19 CNS): > 100 µM
GI50 (OVCAR-4 ovarian): > 100000 nM
TGI (OVCAR-4 ovarian): > 100 µM
GI50 (SF-539 CNS): 0.269 µM
TGI (SF-539 CNS): 0.857 µM
GI50 (OVCAR-8 ovarian): 428 nM
TGI (OVCAR-8 ovarian): 6.61 µM
GI50 (SK-OV-3 ovarian): 453 nM
TGI (SK-OV-3 ovarian): > 100 µM
GI50 (SR leukemia): 308 nM
TGI (SR leukemia): > 100 µM
GI50 (CAKI-1 renal): 425 nM
TGI (CAKI-1 renal): > 100 µM
GI50 (HCC-2998 colon): 795 nM
TGI (HCC-2998 colon): > 100 µM
GI50 (BT-549 breast): 322 nM
TGI (BT-549 breast): 1.32 µM
